The subject of assay [1] is Tyrosine-protein kinase ABL1 (Homo sapiens), P00519 [F317L]. The assay can be described thus: Inhibition of nonphosphorylated ABL1 F317L mutant (unknown origin) assessed as residual activity at 1000 nM by KINOMEscan analysis relative to control.
In assay [2] the test system is Tyrosine-protein kinase ABL1 (Homo sapiens), P00519 [Q252H]. The assay can be described thus: Inhibition of nonphosphorylated ABL1 Q252H mutant (unknown origin) assessed as residual activity at 1000 nM by KINOMEscan analysis relative to control.
For assay [3], the target named is Cyclin-dependent kinase 7 (Homo sapiens) (UniProt P50613). The assay can be described thus: Inhibition of CDK7 (unknown origin) assessed as residual activity at 1000 nM by KINOMEscan analysis relative to control.
The target in assay [4] is Death-associated protein kinase 3 (Homo sapiens) (UniProt O43293). The assay can be described thus: Inhibition of DAPK3 (unknown origin) assessed as residual activity at 1000 nM by KINOMEscan analysis relative to control.
Assay [5] addresses T1, Discoidin domain-containing receptor 2 (Homo sapiens) (UniProt Q16832).
T1 sequence (whole entry): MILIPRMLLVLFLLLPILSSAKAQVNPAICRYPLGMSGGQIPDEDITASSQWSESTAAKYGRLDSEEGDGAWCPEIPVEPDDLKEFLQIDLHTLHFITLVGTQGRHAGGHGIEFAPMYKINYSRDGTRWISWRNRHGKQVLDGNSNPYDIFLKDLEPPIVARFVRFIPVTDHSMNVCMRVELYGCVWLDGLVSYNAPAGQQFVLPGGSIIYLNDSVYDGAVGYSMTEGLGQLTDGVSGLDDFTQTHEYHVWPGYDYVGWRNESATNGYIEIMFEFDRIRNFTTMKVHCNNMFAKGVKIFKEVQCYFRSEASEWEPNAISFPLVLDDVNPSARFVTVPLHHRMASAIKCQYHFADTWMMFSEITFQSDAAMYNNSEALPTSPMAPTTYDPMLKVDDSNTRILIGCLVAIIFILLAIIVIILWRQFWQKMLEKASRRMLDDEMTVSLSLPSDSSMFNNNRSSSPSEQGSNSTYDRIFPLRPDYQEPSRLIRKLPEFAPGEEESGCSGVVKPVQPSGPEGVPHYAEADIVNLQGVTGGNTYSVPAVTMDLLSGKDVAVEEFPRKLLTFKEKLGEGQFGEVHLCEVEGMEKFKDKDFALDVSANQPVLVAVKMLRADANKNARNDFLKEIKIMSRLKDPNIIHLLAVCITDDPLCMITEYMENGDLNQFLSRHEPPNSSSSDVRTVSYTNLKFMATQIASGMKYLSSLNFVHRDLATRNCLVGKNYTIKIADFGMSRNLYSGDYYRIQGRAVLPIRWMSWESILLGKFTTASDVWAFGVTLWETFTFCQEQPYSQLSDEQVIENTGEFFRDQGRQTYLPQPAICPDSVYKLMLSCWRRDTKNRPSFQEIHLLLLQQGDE
Put plainly: Inhibition of DDR2 (unknown origin) assessed as residual activity at 1000 nM by KINOMEscan analysis relative to control.

For assay [6], the target named is Fibroblast growth factor receptor 2 (Homo sapiens) (UniProt P21802). Put plainly: Inhibition of FGFR2 (unknown origin) assessed as residual activity at 1000 nM by KINOMEscan analysis relative to control.
Assay [7] has as its target Maternal embryonic leucine zipper kinase (Homo sapiens) (UniProt Q14680). Put plainly: Inhibition of MELK (unknown origin) assessed as residual activity at 1000 nM by KINOMEscan analysis relative to control.
Assay [8] has as its system Hepatocyte growth factor receptor (Homo sapiens), P08581 [M1250T]. The assay can be described thus: Inhibition of MET M1250T mutant (unknown origin) assessed as residual activity at 1000 nM by KINOMEscan analysis relative to control.
The target in assay [9] is T2, Serine/threonine-protein kinase Nek3 (Homo sapiens) (UniProt P51956).
T2 sequence (whole entry): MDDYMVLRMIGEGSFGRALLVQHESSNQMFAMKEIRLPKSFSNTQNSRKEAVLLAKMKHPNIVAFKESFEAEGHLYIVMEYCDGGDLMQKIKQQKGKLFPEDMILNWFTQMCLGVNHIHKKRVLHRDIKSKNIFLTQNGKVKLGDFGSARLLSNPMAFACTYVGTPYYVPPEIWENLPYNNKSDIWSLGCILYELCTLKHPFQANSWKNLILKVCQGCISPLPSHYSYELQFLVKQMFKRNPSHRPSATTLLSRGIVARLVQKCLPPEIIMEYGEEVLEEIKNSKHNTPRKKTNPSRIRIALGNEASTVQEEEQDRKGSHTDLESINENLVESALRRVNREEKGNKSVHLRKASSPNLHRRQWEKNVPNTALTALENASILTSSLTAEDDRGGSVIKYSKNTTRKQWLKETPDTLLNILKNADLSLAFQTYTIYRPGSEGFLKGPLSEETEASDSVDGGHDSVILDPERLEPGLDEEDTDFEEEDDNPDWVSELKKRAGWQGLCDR
Put plainly: Inhibition of NEK3 (unknown origin) assessed as residual activity at 1000 nM by KINOMEscan analysis relative to control.

The target in assay [10] is Serine/threonine-protein kinase PLK1 (Homo sapiens) (UniProt P53350). Put plainly: Inhibition of PLK1 (unknown origin) assessed as residual activity at 1000 nM by KINOMEscan analysis relative to control.
Assay [11] deals with Interferon-induced, double-stranded RNA-activated protein kinase (Homo sapiens) (UniProt P19525). Put plainly: Inhibition of PRKR (unknown origin) assessed as residual activity at 1000 nM by KINOMEscan analysis relative to control.
Assay [12] concerns ALK tyrosine kinase receptor (Homo sapiens), Q9UM73 [L1196M]. The assay can be described thus: Inhibition of ALK L1196M mutant (unknown origin) assessed as residual activity at 100 nM by KINOMEscan analysis relative to control.
In assay [13] the target is Homeodomain-interacting protein kinase 3 (Homo sapiens) (UniProt Q9H422). Put plainly: Inhibition of HIPK3 (unknown origin) assessed as residual activity at 100 nM by KINOMEscan analysis relative to control.

Death-associated protein kinase 3 (Homo sapiens), sequence (O43293 whole entry, looked up, the tested form may be a part): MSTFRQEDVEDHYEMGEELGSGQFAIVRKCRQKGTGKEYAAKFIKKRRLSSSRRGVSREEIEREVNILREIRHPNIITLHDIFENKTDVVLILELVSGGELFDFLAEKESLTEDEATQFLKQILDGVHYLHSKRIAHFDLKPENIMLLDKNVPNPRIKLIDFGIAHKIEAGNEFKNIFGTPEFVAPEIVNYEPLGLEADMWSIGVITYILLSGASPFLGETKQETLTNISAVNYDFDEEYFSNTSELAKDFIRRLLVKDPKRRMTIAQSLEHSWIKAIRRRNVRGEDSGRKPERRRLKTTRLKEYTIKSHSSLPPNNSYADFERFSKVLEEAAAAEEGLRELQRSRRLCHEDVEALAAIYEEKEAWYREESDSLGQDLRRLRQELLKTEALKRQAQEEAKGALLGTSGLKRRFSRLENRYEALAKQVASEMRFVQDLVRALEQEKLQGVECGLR
Maternal embryonic leucine zipper kinase (Homo sapiens), sequence (Q14680 whole entry, looked up): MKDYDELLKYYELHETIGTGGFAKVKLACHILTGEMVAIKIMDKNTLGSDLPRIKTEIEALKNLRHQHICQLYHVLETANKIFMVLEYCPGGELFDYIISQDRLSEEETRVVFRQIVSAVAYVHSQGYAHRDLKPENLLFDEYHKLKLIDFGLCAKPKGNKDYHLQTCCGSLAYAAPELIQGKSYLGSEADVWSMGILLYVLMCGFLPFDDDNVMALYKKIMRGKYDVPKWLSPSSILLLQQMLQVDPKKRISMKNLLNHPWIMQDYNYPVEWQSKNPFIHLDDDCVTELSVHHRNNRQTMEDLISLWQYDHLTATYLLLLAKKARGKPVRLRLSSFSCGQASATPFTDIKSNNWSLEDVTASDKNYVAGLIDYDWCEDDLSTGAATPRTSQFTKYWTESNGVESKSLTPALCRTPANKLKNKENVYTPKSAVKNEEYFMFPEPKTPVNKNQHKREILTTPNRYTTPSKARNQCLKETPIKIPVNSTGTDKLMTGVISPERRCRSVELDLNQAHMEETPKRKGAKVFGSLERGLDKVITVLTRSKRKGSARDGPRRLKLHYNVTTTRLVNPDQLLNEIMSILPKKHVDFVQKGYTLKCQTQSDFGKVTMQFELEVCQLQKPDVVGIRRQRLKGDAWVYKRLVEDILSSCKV
Cyclin-dependent kinase 7 (Homo sapiens), sequence (P50613 whole entry): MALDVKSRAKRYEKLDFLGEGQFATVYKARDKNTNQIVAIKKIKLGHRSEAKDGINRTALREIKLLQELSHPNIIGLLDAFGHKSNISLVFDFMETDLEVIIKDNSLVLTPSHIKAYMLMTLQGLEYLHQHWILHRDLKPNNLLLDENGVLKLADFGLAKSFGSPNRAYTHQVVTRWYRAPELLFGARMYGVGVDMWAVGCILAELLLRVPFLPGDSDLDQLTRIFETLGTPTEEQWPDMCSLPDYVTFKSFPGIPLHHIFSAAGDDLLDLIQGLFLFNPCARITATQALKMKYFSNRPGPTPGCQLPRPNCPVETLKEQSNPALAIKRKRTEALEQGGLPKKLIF
Fibroblast growth factor receptor 2 (Homo sapiens), sequence (P21802 22-821 limits assumed): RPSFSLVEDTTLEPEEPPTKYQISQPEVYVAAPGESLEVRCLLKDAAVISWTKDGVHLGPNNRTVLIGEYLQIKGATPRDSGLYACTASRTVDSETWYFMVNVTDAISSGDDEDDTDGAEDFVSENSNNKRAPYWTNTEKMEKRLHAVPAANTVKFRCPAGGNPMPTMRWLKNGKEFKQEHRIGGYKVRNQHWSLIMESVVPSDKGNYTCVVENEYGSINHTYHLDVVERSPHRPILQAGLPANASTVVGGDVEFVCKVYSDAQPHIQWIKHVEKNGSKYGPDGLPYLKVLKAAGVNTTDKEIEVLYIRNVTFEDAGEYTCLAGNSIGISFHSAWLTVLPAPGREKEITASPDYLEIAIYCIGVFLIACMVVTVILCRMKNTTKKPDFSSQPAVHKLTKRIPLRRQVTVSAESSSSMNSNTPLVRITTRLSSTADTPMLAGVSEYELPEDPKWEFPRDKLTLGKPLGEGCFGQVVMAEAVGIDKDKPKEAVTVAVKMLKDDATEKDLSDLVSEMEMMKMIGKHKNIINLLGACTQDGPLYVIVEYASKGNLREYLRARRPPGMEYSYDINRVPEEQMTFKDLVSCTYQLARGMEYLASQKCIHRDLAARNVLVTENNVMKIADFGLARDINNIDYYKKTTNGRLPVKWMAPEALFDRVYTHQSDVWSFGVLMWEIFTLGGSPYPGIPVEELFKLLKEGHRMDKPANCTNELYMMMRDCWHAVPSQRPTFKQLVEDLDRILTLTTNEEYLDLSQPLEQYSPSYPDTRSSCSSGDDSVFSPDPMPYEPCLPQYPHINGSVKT
Interferon-induced, double-stranded RNA-activated protein kinase (Homo sapiens), sequence (P19525 whole entry): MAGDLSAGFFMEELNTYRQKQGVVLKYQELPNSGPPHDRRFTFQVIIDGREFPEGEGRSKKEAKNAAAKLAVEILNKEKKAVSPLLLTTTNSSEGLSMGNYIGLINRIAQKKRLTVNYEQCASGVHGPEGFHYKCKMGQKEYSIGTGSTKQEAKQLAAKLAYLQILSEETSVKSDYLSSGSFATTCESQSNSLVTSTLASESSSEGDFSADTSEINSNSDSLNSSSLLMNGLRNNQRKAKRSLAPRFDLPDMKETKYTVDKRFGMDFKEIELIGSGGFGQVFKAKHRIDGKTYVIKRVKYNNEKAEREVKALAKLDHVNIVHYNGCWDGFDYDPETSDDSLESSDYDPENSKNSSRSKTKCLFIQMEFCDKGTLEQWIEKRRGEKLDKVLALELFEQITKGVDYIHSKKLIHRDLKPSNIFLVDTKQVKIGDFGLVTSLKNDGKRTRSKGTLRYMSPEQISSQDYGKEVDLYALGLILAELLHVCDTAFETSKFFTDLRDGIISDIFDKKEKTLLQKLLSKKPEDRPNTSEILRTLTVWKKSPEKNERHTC
Serine/threonine-protein kinase PLK1 (Homo sapiens), sequence (P53350 whole entry): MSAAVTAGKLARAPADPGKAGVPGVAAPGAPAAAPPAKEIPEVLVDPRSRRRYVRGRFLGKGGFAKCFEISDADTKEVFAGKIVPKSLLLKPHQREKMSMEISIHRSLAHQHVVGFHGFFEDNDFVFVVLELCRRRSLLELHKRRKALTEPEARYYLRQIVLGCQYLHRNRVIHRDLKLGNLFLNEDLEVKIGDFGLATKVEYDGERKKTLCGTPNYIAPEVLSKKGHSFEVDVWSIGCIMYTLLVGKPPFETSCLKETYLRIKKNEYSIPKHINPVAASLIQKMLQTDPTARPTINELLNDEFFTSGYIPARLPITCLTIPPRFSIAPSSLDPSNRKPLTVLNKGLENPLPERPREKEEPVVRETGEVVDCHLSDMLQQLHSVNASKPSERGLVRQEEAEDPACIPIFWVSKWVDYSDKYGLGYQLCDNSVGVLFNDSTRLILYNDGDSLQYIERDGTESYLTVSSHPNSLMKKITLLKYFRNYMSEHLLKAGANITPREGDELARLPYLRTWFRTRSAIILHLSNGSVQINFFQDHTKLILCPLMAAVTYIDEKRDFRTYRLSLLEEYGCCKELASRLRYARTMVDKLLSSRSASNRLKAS
ALK tyrosine kinase receptor (Homo sapiens), Q9UM73 [L1196M], sequence (Q9UM73 whole entry L1196M, looked up): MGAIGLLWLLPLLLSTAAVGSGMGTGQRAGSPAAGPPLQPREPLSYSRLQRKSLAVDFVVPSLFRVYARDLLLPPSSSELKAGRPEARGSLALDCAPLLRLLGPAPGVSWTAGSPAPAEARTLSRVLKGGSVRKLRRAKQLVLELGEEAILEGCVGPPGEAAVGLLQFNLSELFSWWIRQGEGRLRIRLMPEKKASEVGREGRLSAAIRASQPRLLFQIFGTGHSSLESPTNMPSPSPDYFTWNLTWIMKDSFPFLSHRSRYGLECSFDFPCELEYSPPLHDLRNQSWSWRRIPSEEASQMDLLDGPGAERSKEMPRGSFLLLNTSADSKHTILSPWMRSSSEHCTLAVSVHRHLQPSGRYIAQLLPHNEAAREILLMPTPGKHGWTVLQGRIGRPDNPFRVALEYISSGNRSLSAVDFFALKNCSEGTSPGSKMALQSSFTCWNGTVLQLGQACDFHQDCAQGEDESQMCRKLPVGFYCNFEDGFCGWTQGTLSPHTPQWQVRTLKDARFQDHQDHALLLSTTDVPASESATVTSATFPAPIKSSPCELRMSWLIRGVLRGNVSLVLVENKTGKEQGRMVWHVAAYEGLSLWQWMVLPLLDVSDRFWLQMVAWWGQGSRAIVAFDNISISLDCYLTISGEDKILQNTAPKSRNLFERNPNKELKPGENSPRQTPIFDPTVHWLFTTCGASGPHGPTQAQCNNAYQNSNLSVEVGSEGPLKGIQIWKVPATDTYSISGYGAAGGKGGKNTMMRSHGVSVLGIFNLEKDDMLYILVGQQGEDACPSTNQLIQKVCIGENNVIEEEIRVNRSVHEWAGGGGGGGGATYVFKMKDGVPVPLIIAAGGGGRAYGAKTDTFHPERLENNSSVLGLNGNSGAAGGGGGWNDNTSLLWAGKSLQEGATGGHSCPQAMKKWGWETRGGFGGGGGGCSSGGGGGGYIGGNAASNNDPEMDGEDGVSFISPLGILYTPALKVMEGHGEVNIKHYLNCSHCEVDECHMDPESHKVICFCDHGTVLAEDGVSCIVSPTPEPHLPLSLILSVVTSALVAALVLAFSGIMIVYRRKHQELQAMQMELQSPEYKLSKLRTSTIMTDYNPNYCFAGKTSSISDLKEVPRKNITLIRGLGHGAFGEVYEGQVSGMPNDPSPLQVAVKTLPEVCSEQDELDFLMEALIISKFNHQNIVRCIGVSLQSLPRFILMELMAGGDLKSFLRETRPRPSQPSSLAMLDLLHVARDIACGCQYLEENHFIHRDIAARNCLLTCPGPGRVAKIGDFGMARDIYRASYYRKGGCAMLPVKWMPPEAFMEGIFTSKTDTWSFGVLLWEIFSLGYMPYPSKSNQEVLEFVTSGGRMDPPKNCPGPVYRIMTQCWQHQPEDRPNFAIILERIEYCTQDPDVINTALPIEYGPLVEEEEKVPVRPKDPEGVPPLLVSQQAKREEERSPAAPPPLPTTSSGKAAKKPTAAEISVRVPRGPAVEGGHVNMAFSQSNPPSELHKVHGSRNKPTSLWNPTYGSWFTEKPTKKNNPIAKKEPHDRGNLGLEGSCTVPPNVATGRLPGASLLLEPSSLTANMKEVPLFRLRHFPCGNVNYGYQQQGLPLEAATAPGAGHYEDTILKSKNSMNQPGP

For `COc1cc2nc(C)nc(N[C@H](C)c3cccc(-c4cn[nH]c4)c3)c2cc1OC`, the Activity in [1] turned out to be 99%; in [2], 45%; in assay [3], 92%; in [4], 76%; in assay [5], 97%; in assay [6], 67%. Further, the Activity in assay [7] turned out to be 91%; in assay [8], 100%; in assay [9], 42%; in assay [10], 100%; in assay [11], 72%.

In the case of `COc1cc2ncnc(N[C@H](C)c3cccc4ccccc34)c2cc1OC`, the Activity in assay [12] is 66%; in assay [13] it was 88%; in assay [1], 99%; in assay [2], 100%; in assay [3], 87%; in [4] it was 100%. The Activity in assay [5] worked out at 67%; in [6], 100%; in assay [7], 71%; in [8], 98%; in [9], 93%; in [10], 92%. Moreover, in assay [11], the Activity amounted to 92%.

The values above are taken from ChEMBL document CHEMBL5678818, “Discovery of potent SOS1 inhibitors that block RAS activation via disruption of the RAS-SOS1 interaction” (Proc Natl Acad Sci U S A, 2019).
